Laboratory results: ChEMBL document CHEMBL1201862, “PubChem BioAssay data set” (2004)
The source made the active and inactive calls.

How the values were obtained:
Nonstructural protein 1 = Nonstructural protein 1 (Influenza A virus, UniProt Q194T2); assay type: functional, Influenza A virus (A/California/07/2009(H1N1))
Caspase-7 = target: T1, Caspase-7 (Homo sapiens, UniProt P55210); test: caspase-7 enzyme inhibition, selectivity check – biochemical, DEVD-R110 fluorescence, cherry-pick, selectivity assay for caspase-6 inhibitor project, dose response (AID 743295); assay type: functional
T1 sequence (P55210 whole entry): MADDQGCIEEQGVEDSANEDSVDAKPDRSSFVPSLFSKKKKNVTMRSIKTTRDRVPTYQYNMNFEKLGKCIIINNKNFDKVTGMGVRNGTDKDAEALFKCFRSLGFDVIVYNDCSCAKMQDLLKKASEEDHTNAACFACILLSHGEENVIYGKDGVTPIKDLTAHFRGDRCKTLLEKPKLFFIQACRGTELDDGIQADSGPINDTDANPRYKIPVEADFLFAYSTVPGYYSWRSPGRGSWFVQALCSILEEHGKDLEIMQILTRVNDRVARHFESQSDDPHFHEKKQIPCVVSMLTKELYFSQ

Troponin, cardiac muscle = Troponin, cardiac muscle (Homo sapiens, UniProt P19429+P45379+P63316); test: compounds desensitizing RTF to calcium – biochemical, fluorescence, cardiac regulated thin filaments, triplicate IC50, dose response (AID 504742); assay type: protein-complex assay
[1] = target: Intestinal-type alkaline phosphatase (Mus musculus, UniProt P24822); test: PubChem AID 488785; assay type: functional
Fatty acid synthase = Fatty acid synthase (Homo sapiens, UniProt P49327); test: inhibition of human FAS-TE enzyme activity – biochemical, kinetic fluorescence intensity, dose response (AID 624326); assay type: functional;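 also: rate of fluorescence rise from hydrolysis of a fluorogenic O-methyl fluorescein ester substrate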
Genome polyprotein = Genome polyprotein (dengue virus type 2, UniProt P29990); test: flavivirus cap methylation enzyme inhibition – biochemical, confirmation dose response, primary screen (AID 588689); assay type: functional
[2] = target: 1-phosphatidylinositol 4,5-bisphosphate phosphodiesterase gamma-1 (Homo sapiens, UniProt P19174); test: Counterscreen for inhibitors of phospholipase C isozymes (PLC-B3): Fluorescence-based biochemical high throughput dose response assay to identify inhibitors of phospholipase C isozymes (PLC-gamma1).
[3] = target: Lysine-specific demethylase 4A (Homo sapiens, UniProt O75164); test: inhibition of JMJD2A H3K9me3 demethylation – biochemical, DELFIA europium, cherry-picked samples, selectivity assay for GASC-1 inhibitor project, dose response (AID 488840)
Streptokinase A = target: T2, Streptokinase A (Streptococcus pyogenes serotype M1, UniProt P10520); test: viability-normalized secreted streptokinase activity reduction – plasminogen activation absorbance, OD405, dose response (AID 1914); assay type: functional, Streptococcus pyogenes M1 GAS;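 also: secreted streptokinase activity via plasminogen activation per viability signal from cell pellet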
T2 sequence (P10520 whole entry): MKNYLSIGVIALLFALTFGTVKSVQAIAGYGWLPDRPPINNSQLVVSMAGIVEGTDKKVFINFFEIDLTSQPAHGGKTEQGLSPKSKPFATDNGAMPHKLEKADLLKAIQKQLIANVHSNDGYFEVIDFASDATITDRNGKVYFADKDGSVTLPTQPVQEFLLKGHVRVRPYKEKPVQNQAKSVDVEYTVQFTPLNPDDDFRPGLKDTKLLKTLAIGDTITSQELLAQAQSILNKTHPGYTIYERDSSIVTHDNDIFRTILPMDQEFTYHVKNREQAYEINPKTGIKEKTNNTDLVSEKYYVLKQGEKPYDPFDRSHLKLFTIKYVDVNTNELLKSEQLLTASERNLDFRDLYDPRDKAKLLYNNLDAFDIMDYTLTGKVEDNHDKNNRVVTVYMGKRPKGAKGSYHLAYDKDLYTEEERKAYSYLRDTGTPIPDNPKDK

[4] = off-target signal loss in HeLa-CEM21 co-culture – HeLa F-luc CTL cells, cherry-picked, counter-screen for HIV-1 Env fusion inhibitor project, dose response (AID 652040); assay type: functional, cell-based;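 also: potency for signal decrease marking cytotoxic or nonspecific inhibition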
Protein RecA = target: T3, Protein RecA (Mycobacterium tuberculosis, UniProt P9WHJ3); test: Fluorescence Cell-Free Homogeneous Dose Retest to Identify Inhibitors of RecA-Intein Splicing Activity. [Related pubchem assays (depositor defined):AID2097, AID2223, AID489010, AID492950]; assay type: functional
T3 sequence (P9WHJ3 whole entry): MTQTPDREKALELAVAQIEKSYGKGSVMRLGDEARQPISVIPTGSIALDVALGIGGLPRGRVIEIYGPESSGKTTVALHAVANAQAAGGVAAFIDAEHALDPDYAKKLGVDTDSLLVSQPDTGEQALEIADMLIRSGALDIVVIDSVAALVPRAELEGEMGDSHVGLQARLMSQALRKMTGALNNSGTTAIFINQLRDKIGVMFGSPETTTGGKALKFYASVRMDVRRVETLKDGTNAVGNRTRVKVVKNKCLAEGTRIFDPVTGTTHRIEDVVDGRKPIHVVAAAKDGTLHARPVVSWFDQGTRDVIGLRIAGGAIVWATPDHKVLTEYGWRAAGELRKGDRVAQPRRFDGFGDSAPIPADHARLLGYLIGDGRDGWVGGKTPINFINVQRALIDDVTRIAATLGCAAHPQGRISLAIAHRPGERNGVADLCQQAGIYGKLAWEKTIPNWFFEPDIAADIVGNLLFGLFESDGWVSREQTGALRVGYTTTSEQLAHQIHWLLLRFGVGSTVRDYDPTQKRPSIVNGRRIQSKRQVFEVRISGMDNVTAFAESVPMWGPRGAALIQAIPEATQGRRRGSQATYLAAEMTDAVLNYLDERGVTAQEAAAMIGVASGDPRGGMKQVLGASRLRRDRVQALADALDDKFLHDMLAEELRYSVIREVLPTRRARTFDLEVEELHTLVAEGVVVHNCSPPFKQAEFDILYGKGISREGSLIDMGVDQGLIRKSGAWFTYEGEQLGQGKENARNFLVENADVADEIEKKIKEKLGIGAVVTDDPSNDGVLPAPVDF

[5] = viability loss in CEM21 cells – cell-based, CellTiter-Glo luminescence, cherry-picked, cytotoxicity control for viral fusion inhibitor project, dose response (AID 652042); assay type: functional;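 also: potency for signal decrease meaning cytotoxicity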
[6] = system: Streptococcus sp. 'group A'; test: Streptococcus pyogenes SK(-)GAS viability under kanamycin – luminescence, BacTiterGlo, confirmation, counter-screen for streptokinase expression inhibitor project, dose response (AID 1900); assay type: functional, organism-based
Bcl-2-related protein A1 = target: T4, Bcl-2-related protein A1 (Mus musculus, UniProt Q07440); assay type: functional;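 also: confirmatory dose–response counterscreen on Bfl-1, used to check hits from a UBC13 polyubiquitin inhibitor campaign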
T4 sequence (Q07440 whole entry): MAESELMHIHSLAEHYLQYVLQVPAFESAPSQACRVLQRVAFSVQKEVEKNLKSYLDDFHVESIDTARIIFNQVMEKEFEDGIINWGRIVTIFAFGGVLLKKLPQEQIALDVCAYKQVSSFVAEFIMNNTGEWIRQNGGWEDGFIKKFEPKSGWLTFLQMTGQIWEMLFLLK

INS1 = test: INS-1E survival protection against cytokine death – cell-based, luminescence, retest, dose response (AID 449756); assay type: functional; conditions: Rattus norvegicus;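 also: cell death triggered by IL-1 beta plus TNF-alpha plus IFN-gamma mixture; protective hits raise ATP signal compared with cytokine alone wells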
[7] = HEK-293T viability loss, compound-treated – cell-based, uHTS hits, cytotoxicity control for B/T-cell NF-kB inhibitor project, dose response (AID 489019); assay type: functional;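 also: IC50 reflects cytotoxicity as loss of cell viability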

Structure (SMILES)	IC50 (Nonstructural protein 1)	AC50 (Caspase-7)	IC50 (Troponin, cardiac muscle)	IC50 [1]	IC50 (Fatty acid synthase)	IC50 (Genome polyprotein)	IC50 [2]	AC50 [3]	EC50 (Streptokinase A)	AC50 [4]	EC50 (Protein RecA)	AC50 [5]	EC50 [6]	IC50 (Bcl-2-related protein A1)	AC50 (INS1)	IC50 [7]
O=c1ccc2c(-c3ccccc3S(=O)(=O)O)c3ccc(O)c(O)c3oc-2c1O [PYROGALLOL RED]	13.5 µM (active)	> 70 µM (inactive)	0.558 µM (active)	12.4 µM (active)	10.4 µM (active)	4.06 µM (active)	14.2 µM (inactive)	2.63 µM (active)								
CCCCCCCCCCOC(=O)C[n+]1c(COc2ccccc2OC)n(C)c2ccccc21									> 150 µM (not active)	12.3 µM (active)	8.91 µM (active)	6.91 µM (active)	6.69 µM (active)	18.4 µM (active)	1.04 µM (active)	54.4 µM (inactive)
